In PubChem BioAssay AID248 (DTP/NCI, 2004):
Several values for one entry are separate records, joined by “and”; a condition that tells them apart may be missing. Identical values can stand only once. Toxic doses and inconclusive results are not listed.

System: L1210 leukemia ip in BDF1 mice, survival T/C
Assay: NCI In Vivo Anticancer Drug Screen. Data for tumor model L1210 Leukemia (intraperitoneal) in B6D2F1 (BDF1) mice
Conditions: endpoint: mean survival time, higher = longer survival
In short: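 Each compound was tested against a transplantable tumor grown in mice. The endpoint was survival, with treated animals benchmarked against vehicle controls as a simple ratio.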

[1] = dose: 100.0 mg/kg/injection, schedule: Q04DX002 (ip), vehicle: gum acacia
[2] = dose: 200.0 mg/kg/injection, schedule: Q04DX002 (ip), vehicle: gum acacia
[3] = dose: 400.0 mg/kg/injection, schedule: Q04DX002 (ip), vehicle: gum acacia
[4] = dose: 100.0 mg/kg/injection, schedule: Q04DX003 (ip), vehicle: saline with Tween-80
[5] = dose: 100.0 mg/kg/injection, schedule: Q01DX001 (ip), vehicle: saline

O=C(/C=C/c1cccc2ccccc12)c1cccc([N+](=O)[O-])c1
T/C [1]: 88 % of control
T/C [2]: 92 % of control
T/C [3]: 96 % of control

CCOC(=O)C1C(=O)NCC1c1ccccc1 (stereo not given)
T/C (dose: 50.0 mg/kg/injection, schedule: Q01DX009 (ip), vehicle: saline): 94 % of control and 97 % of control
T/C (dose: 100.0 mg/kg/injection, schedule: Q01DX009 (ip), vehicle: saline): 104 % of control
T/C (dose: 200.0 mg/kg/injection, schedule: Q01DX009 (ip), vehicle: saline): 108 % of control and 91 % of control

COC(=O)C1=C(C(=O)OC)C2C=CC1C1(C)NC(=O)C21C (stereo not given)
T/C (dose: 100.0 mg/kg/injection, schedule: Q04DX002 (ip), vehicle: Klucel (hydroxypropylcellulose) (HPC)): 94 % of control
T/C (dose: 200.0 mg/kg/injection, schedule: Q04DX002 (ip), vehicle: Klucel (hydroxypropylcellulose) (HPC)): 91 % of control
T/C (dose: 400.0 mg/kg/injection, schedule: Q04DX002 (ip), vehicle: Klucel (hydroxypropylcellulose) (HPC)): 97 % of control

Nc1nc(N)c2nc(CNc3ccc(C(=O)NC(CCCCC(=O)O)C(=O)O)cc3)cnc2n1 (stereo not given)
T/C (dose: 20.0 mg/kg/injection, schedule: Q01DX009 (ip), vehicle: sodium bicarbonate): 157 % of control

CCCCCCCC/C=C\CCCCCCCCNC(C)=O
T/C [4]: 101 % of control
T/C (dose: 200.0 mg/kg/injection, schedule: Q04DX003 (ip), vehicle: saline with Tween-80): 103 % of control
T/C (dose: 400.0 mg/kg/injection, schedule: Q04DX003 (ip), vehicle: saline with Tween-80): 98 % of control

CCOC(=O)C1(C(=O)OCC)C(C)CC(OCC)N1C(=O)c1cc2c(cc1[N+](=O)[O-])OCO2 (stereo not given)
T/C (dose: 25.0 mg/kg/injection, schedule: Q04DX003 (ip), vehicle: Klucel (hydroxypropylcellulose) (HPC)): 92 % of control
T/C (dose: 50.0 mg/kg/injection, schedule: Q04DX003 (ip), vehicle: Klucel (hydroxypropylcellulose) (HPC)): 89 % of control
T/C (dose: 100.0 mg/kg/injection, schedule: Q04DX003 (ip), vehicle: Klucel (hydroxypropylcellulose) (HPC)): 94 % of control

CC(C)(O)C(=NCc1ccccc1)c1ccccc1
T/C (dose: 75.0 mg/kg/injection, schedule: Q04DX003 (ip), vehicle: other): 97 % of control
T/C (dose: 150.0 mg/kg/injection, schedule: Q04DX003 (ip), vehicle: other): 92 % of control
T/C (dose: 300.0 mg/kg/injection, schedule: Q04DX003 (ip), vehicle: other): 98 % of control

COc1ccc(OC)c(-c2cc(-c3ccccc3)nc(-c3cccc([N+](=O)[O-])c3)c2)c1
T/C [1]: 102 % of control
T/C [2]: 97 % of control
T/C [3]: 91 % of control

CCCCCCC(C)C1C(=O)NC(=S)NC1=O (stereo not given)
T/C (dose: 75.0 mg/kg/injection, schedule: Q01DX001 (ip), vehicle: carboxymethylcellulose (CMC)): 93 % of control
T/C (dose: 150.0 mg/kg/injection, schedule: Q01DX001 (ip), vehicle: carboxymethylcellulose (CMC)): 91 % of control
T/C (dose: 300.0 mg/kg/injection, schedule: Q01DX001 (ip), vehicle: carboxymethylcellulose (CMC)): 94 % of control

NNC(=O)c1c(C(N)=O)n[nH]c1C1OC(COCc2ccccc2)C(OCc2ccccc2)C1OCc1ccccc1 (stereo not given)
T/C (dose: 100.0 mg/kg/injection, schedule: Q01DX005 (ip), vehicle: saline): 97 % of control and 93 % of control
T/C (dose: 200.0 mg/kg/injection, schedule: Q01DX005 (ip), vehicle: saline): 100 % of control and 101 % of control

C[CH2][Ge]1([CH2]C)[CH2]C(C)=C(C)[CH2]1
T/C (dose: 100.0 mg/kg/injection, schedule: Q04DX002 (ip), vehicle: saline with Tween-80): 95 % of control
T/C (dose: 200.0 mg/kg/injection, schedule: Q04DX002 (ip), vehicle: saline with Tween-80): 95 % of control

O=S(=O)(F)c1ccc(CBr)cc1
T/C (dose: 25.0 mg/kg/injection, schedule: Q01DX001 (ip), vehicle: saline): 113 % of control
T/C (dose: 50.0 mg/kg/injection, schedule: Q01DX001 (ip), vehicle: saline): 123 % of control
T/C [5]: 95 % of control and 98 % of control

CSc1nc(Cl)c(Br)c(N2CC2)n1
T/C (dose: 100.0 mg/kg/injection, schedule: Q01DX Z (ip), vehicle: methylcellulose (MC)): 110 % of control
T/C (dose: 200.0 mg/kg/injection, schedule: Q01DX Z (ip), vehicle: methylcellulose (MC)): 108 % of control

C[C@]12CCC(=O)C=C1CC[C@@H]1[C@@H]2[C@@H](O)C[C@@]2(C)[C@H]1CC[C@]2(O)C(=O)COC(=O)c1ccc([N+](=O)[O-])cc1Cl
T/C (dose: 100.0 mg/kg/injection, schedule: Q01DX001 (sc), vehicle: steriod suspending solution): 101 % of control
T/C (dose: 200.0 mg/kg/injection, schedule: Q01DX001 (sc), vehicle: steriod suspending solution): 101 % of control
T/C (dose: 400.0 mg/kg/injection, schedule: Q01DX001 (sc), vehicle: steriod suspending solution): 97 % of control

COc1ccc(NC(=O)/C=N/O)c(Cl)c1
T/C (dose: 200.0 mg/kg/injection, schedule: Q01DX001 (ip), vehicle: carboxymethylcellulose (CMC)): 94 % of control
T/C (dose: 400.0 mg/kg/injection, schedule: Q01DX001 (ip), vehicle: carboxymethylcellulose (CMC)): 90 % of control

O=C(O)c1cccc(C2CC2)c1
T/C (dose: 100.0 mg/kg/injection, schedule: Q01DX001 (ip), vehicle: other): 95 % of control
T/C (dose: 100.0 mg/kg/injection, schedule: Q04DX003 (ip), vehicle: other): 97 % of control
T/C (dose: 200.0 mg/kg/injection, schedule: Q01DX001 (ip), vehicle: other): 97 % of control
T/C (dose: 200.0 mg/kg/injection, schedule: Q04DX003 (ip), vehicle: other): 97 % of control
T/C (dose: 400.0 mg/kg/injection, schedule: Q01DX001 (ip), vehicle: other): 98 % of control
T/C (dose: 400.0 mg/kg/injection, schedule: Q04DX003 (ip), vehicle: other): 97 % of control

COC(=O)CC(c1ccc(Cl)cc1)N1CCCCC1 (stereo not given)
T/C [5]: 98 % of control
T/C (dose: 200.0 mg/kg/injection, schedule: Q01DX001 (ip), vehicle: saline): 102 % of control
T/C (dose: 400.0 mg/kg/injection, schedule: Q01DX001 (ip), vehicle: saline): 96 % of control

OCCNCCN1CCN(CCCN2c3ccccc3Sc3ccc(C(F)(F)F)cc32)CC1
T/C (dose: 6.25 mg/kg/injection, schedule: Q01DX009 (ip), vehicle: saline): 111 % of control
T/C (dose: 6.25 mg/kg/injection, schedule: Q04DX003 (ip), vehicle: saline): 104 % of control
T/C (dose: 12.5 mg/kg/injection, schedule: Q01DX009 (ip), vehicle: saline): 105 % of control
T/C (dose: 12.5 mg/kg/injection, schedule: Q04DX003 (ip), vehicle: saline): 101 % of control
T/C (dose: 25.0 mg/kg/injection, schedule: Q01DX009 (ip), vehicle: saline): 88 % of control
T/C (dose: 25.0 mg/kg/injection, schedule: Q04DX003 (ip), vehicle: saline): 95 % of control

CCOC(=O)C1(C(=O)OCC)COC(=O)C1
T/C (dose: 50.0 mg/kg/injection, schedule: Q01DX009 (ip), vehicle: acetone): 94 % of control
T/C (dose: 100.0 mg/kg/injection, schedule: Q01DX009 (ip), vehicle: acetone): 97 % of control
T/C (dose: 100.0 mg/kg/injection, schedule: Q04DX003 (ip), vehicle: acetone): 107 % of control
T/C (dose: 200.0 mg/kg/injection, schedule: Q01DX009 (ip), vehicle: acetone): 100 % of control
T/C (dose: 200.0 mg/kg/injection, schedule: Q04DX003 (ip), vehicle: acetone): 96 % of control
T/C (dose: 400.0 mg/kg/injection, schedule: Q04DX003 (ip), vehicle: acetone): 98 % of control

Cc1cc2c(cc1C)C(=O)C(N1CCN(C)CC1)CCC2 (stereo not given)
T/C [4]: 101 % of control

O=CC1c2ccccc2C(C=O)c2c1ccc1ccccc21 (stereo not given)
T/C (dose: 50.0 mg/kg/injection, schedule: Q01DX001 (ip), vehicle: Klucel (hydroxypropylcellulose) (HPC)): 93 % of control
T/C (dose: 100.0 mg/kg/injection, schedule: Q01DX001 (ip), vehicle: Klucel (hydroxypropylcellulose) (HPC)): 91 % of control
T/C (dose: 200.0 mg/kg/injection, schedule: Q01DX001 (ip), vehicle: Klucel (hydroxypropylcellulose) (HPC)): 100 % of control

O=C1NC2c3ccccc3CC12 (stereo not given)
T/C (dose: 100.0 mg/kg/injection, schedule: Q01DX001 (ip), vehicle: saline with Tween-80): 95 % of control
T/C (dose: 200.0 mg/kg/injection, schedule: Q01DX001 (ip), vehicle: saline with Tween-80): 92 % of control
T/C (dose: 400.0 mg/kg/injection, schedule: Q01DX001 (ip), vehicle: saline with Tween-80): 89 % of control

O=C(Nc1cccc(F)c1)N(Cc1ccccc1)Cc1ccccc1
T/C (dose: 100.0 mg/kg/injection, schedule: Q01DX009 (ip), vehicle: Klucel (hydroxypropylcellulose) (HPC)): 92 % of control
T/C (dose: 200.0 mg/kg/injection, schedule: Q01DX009 (ip), vehicle: Klucel (hydroxypropylcellulose) (HPC)): 102 % of control
T/C (dose: 400.0 mg/kg/injection, schedule: Q01DX009 (ip), vehicle: Klucel (hydroxypropylcellulose) (HPC)): 97 % of control
